The values below come from US20260364072A1, “METHODS FOR PROMOTING EXPANSION OF HUMAN CD34+ CELLS IN VIVO AND FOR PROMOTING NEURAL REGENERATION” (THE REGENTS OF THE UNIVERSITY OF CALIFORNIA, priority 2023, published 2026).

Data set [1] in a line: NHP single-dose toxicokinetic study. Format: in vivo, cynomolgus monkeys. As for the experimental part:
(§1) Pre-IND PD and toxicokinetic (TK) studies (FIG. 4D) were enabled by scalable Rebecsinib synthesis^34 and development of an optimized formulation for in vivo biodistribution (5% w/v EtOH, 5% w/v Kolliphor HS15 in 0.9% Sodium Chloride). In PK studies, Rebecsinib was detectable in rat, rabbit, and non-human primate (NHP) plasma following IV bolus administration. In rat TK studies, Rebecsinib was quantifiable up to 1-hour post-dose at 1 mg/kg and up to 4 hours post-dose at 3, 5, and 8 mg/kg (FIG. 4E). […] Rebecsinib T1/2 values were 0.342, 0.447, 0.313, and 0.530 hours at 1, 3, 5, and 8 mg/kg, respectively. […] Following 3, 10, and 20 mg/kg boluses, Rebecsinib was quantifiable in plasma 1 hour post-dose and could be detected up to 8 hours post-dosing with 40 mg/kg (FIG. 4F). […] Following 3, 10, 15, and 20 mg/kg of Rebecsinib, quantifiable plasma concentrations of Rebecsinib were observed through 8 hrs post-dose (FIG. 4G).
(§2) (FIG. 29D) Schematic diagram outlining multispecies toxicokinetic (TK) and pharmacodynamic studies in mammalian species treated in vivo with a single dose of Rebecsinib. Toxicokinetic analyses were performed in rats (n=6 per sex, per group), rabbits (n=2 per sex, per group), and non-human primates (NHPs, n=1 per sex, per group) and pharmacodynamic splice isoform quantification studies were performed in peripheral blood mononuclear cells (PBMCs) from NHP.
(§3) (FIG. 29G, FIG. 29H) For in vivo TK and complementary pharmacodynamic studies, NHPs were given a single injection of Rebecsinib at 3-20 mg/kg, or vehicle control, and blood samples were drawn at regular intervals to determine plasma concentrations (FIG. 29G) of the compound along with splice isoform biomarker assays to quantify MCL1 exon skipping in PBMCs isolated from treated animals (FIG. 29H, n=2 animals per group).
(§4) Single-dose TK studies were performed in Sprague Dawley rats (Charles River Labs, South San Francisco, CA), New Zealand white rabbits (BASi/Inotiv, West Lafayette, IN), and cynomolgus monkeys (BASi/Inotiv). Rat and rabbit studies included toxicology analyses, quantification of plasma levels of Rebecsinib, and necropsies to evaluate organ integrity after treatment. For NHP studies, health and ophthalmological evaluations were performed before and after dosing with Rebecsinib, and blood samples were collected for quantification of plasma levels of Rebecsinib and biomarker studies in PBMCs from treated and control animals. All monkeys were returned to the animal colony after the end of the observation period. Toxicokinetic values including mean plasma concentrations and t1/2 values were calculated according to CRO-approved protocols (Charles River and BASi).

Data set [2] concerns MCL1 and SF3B3 transcripts. Kind of data set: Pharmacodynamic splice isoform qRT-PCR in PBMCs from treated NHPs. The data set is classed as in vivo, cynomolgus monkeys. As for the experimental part: Pharmacodynamic studies were conducted on peripheral blood mononuclear cells (PBMCs) isolated from NHPs treated with escalating doses of Rebecsinib (3 mg/kg, 10 mg/kg, 15 mg/kg or 20 mg/kg) or a vehicle control and collected at 30 minute and 4 hours post-dose.
as §3
For quantitative analysis of splice isoform expression, RNA editing rates, and whole gene expression by qRT-PCR, cells or tissue fragments were harvested in RNA lysis buffer and total RNA was extracted using RNeasy mini or micro extraction kits (QIAGEN, Germantown, MD) following the manufacturer's protocol including a DNase incubation step to digest any trace genomic DNA present. Levels of ADAR1 variants and LSC-specific transcripts were quantified by qRT-PCR as previously described.^14 RNA-editing site-specific qRT-PCR (RESSqPCR) was performed for variants in AZIN1 transcripts.^53 Additional species-specific primers were also designed to quantify intron retention rates in cells treated with Rebecsinib as a biomarker of response to RNA splicing modulation. Specifically, for the two-step SYBR-green based assays, as previously described,^7,14,53 100-1000 ng of RNA were subjected to cDNA synthesis using the SUPERSCRIPT III™ (ThermoFisher Scientific) kit followed by qRT-PCR using SYBR GreenER (ThermoFisher Scientific) master mix according to the manufacturer's recommended procedures. qRT-PCR was performed using SYBR GREENER SUPER MIX™ (Life Technologies) on BioRad iQ5™, C1000 TOUCH™, or BioRad CFX384™ instruments. Human splice isoform-specific, RNA editing site-specific qPCR (RESSqPCR)^53. Primer sets that have not been previously published were designed and tested for efficiency followed by analyses in samples exposed to Rebecsinib, with species-specific HPRT primers used as controls. Samples with Ct<35 for the species-specific reference gene, HPRT, were included in analyses. Relative mRNA expression values were calculated using the 2^−ΔCT method, with normalization to untreated or vehicle-treated controls.^54
Background: Real-time PCR tracks product formation cycle by cycle.

The test system of data set [3] is AZIN1 transcript. Kind of data set: AZIN1 transcript editing by RESSqPCR in TF1a cells. The data set is classed as cell-based, human. The note with it: shADAR1-transduced cells treated with Rebecsinib compared with vehicle controls. From the text:
For lentivirus-mediated knockdown of human ADAR1 in ADAR1 activation and RNA editing biomarker studies of the nanoluc-GFP reporter and endogenous transcripts, human leukemia cells were stably transduced with the lentiviral shRNA vectors targeting ADAR1 (shADAR1) or scrambled control (shCtrl) to ablate endogenous ADAR1 expression. The shRNA plasmids targeting ADAR1 (shADAR1) as well as the scrambled control (shCtrl) were purchased from VectorBuilder (Chicago, IL) (shCtrl: […] (SEQ ID NO:3) and shADAR1: […]) (SEQ ID NO:4). […] Viral titers were assessed by qRT-PCR and transduction efficiency was tested in 293T cells. […]
For quantitative analysis of splice isoform expression, RNA editing rates, and whole gene expression by qRT-PCR, cells or tissue fragments were harvested in RNA lysis buffer and total RNA was extracted using RNeasy mini or micro extraction kits (QIAGEN, Germantown, MD) following the manufacturer's protocol including a DNase incubation step to digest any trace genomic DNA present. Levels of ADAR1 variants and LSC-specific transcripts were quantified by qRT-PCR as previously described.^14 RNA-editing site-specific qRT-PCR (RESSqPCR) was performed for variants in AZIN1 transcripts.^53 Additional species-specific primers were also designed to quantify intron retention rates in cells treated with Rebecsinib as a biomarker of response to RNA splicing modulation. […]

Data set [4] can be described thus: Rat single-dose toxicokinetic study. Format: in vivo, Sprague Dawley rats. As to conditions: IV bolus; for Tmax / half-life: plasma. How it is done:
as §1, §2
(FIG. 29E, FIG. 29F) For toxicokinetic analyses, rats (FIG. 29E) and rabbits (FIG. 29F) were given a single injection of Rebecsinib at 1-40 mg/kg, or vehicle control, and blood samples were drawn at regular intervals to determine plasma concentrations of the compound over 8 hr after treatment.
as §4

In general, Tmax refers to the time from dosing to the highest level.

Where only a bound is given, the exact number is not on record here.

Turning to `CC[C@H](OC)[C@@H](C)[C@H]1O[C@@H]1[C@@H](O)[C@H](C)/C=C/C=C(\C)[C@H]1OC(=O)C[C@H](O)CC[C@@](C)(O)[C@@H](OC(C)=O)/C=C/[C@@H]1C` [Rebecsinib], in data set [1], the tolerability result is on record as “favorable tolerability”. In data set [1] (20 mg/kg, resolved within 24 hours with no treatment and no sequelae), the diarrhea result is recorded as “one female NHP in the 20 mg/kg treatment group developed diarrhea”. The “quantifiable plasma concentrations through time post-dose” value in data set [1] (IV bolus, 3, 10, 15, and 20 mg/kg) is given as “up to 8 hrs”. Further, the “peak (Cmax) levels, male vs female” value in data set [1] (IV bolus, all dose levels) is “comparable between male and females”. Further, the “total (AUClast) levels, male vs female” value in data set [1] (IV bolus, all dose levels) is “comparable between male and females”. Moreover, the half-life in data set [1] (cynomolgus monkey, plasma, IV bolus, read-out: half-life (t1/2)) was 37.2 to 66 min; in data set [4] (1 mg/kg), 20.5 min; in data set [4] (3 mg/kg), 26.8 min; in data set [4] (5 mg/kg), 18.8 min; in data set [4] (8 mg/kg), 31.8 min. In addition, in data set [2] (NHP, 3, 10, 15 or 20 mg/kg, 30 minute and 4 hours post-dose), the “MCL1 exon skipping in PBMCs” value is reported as “on-target splicing modulation typified by MCL1 exon skipping”. For the same compound, in data set [2] (NHP, PD analyses), the splicing modulation entry was “predictable, dose-dependent splicing modulation”. The “SF3B3 intron retention in PBMCs, 4 hours” value in data set [2] (NHP, single doses of 3, 10, 15 or 20 mg/kg) is on record as “detectable at 4 hours”. Further, the “SF3B3 intron retention in PBMCs, 30 min” value in data set [2] (NHP, single doses of 3, 10, 15 or 20 mg/kg, compared with vehicle) is “increased at 30 min”. The “AZIN1 transcript editing activity (RESSqPCR)” value in data set [3] was “low levels of AZIN1 transcript editing activity”. Also, the “last time quantifiable in plasma” value in data set [4] (1 mg/kg) was “up to 1 hour”; in data set [4] (3 mg/kg), “up to 4 hours”; in data set [4] (5 mg/kg), “up to 4 hours”; in data set [4] (8 mg/kg) it was “up to 4 hours”. For the same compound, the Tmax in data set [4] (1 mg/kg) is not above 4.98 min; in data set [4] (3 mg/kg) it was not above 10 min; in data set [4] (5 mg/kg), not above 4.98 min; in data set [4] (8 mg/kg), not above 10 min.
